According to US11453674B2, “Heterocyclic compound, preparation method and use thereof in medicine” (SUZHOU SINOVENT PHARMACEUTICALS CO., LTD., priority 2019, dated 2022):

Key:
[1] = test system: primary human hepatocytes; experiment: Cytotoxicity assay on primary human hepatocytes (CellTiter-Glo, 48 h); type: cell-based; settings: Hepatocyte, cell viability, 48 h incubation
Protocol: Example 26: Cytotoxicity Assay of Compounds on Primary Human Hepatocytes
Primary human hepatocytes were purchased from Biorecamation IVT. Co., Ltd. (lot no.: AKB/S1391); the components of in vitro culture media of primary human cell and suppliers are as follows:
1. Frozen primary human hepatocytes were thawed, then resuspended in a culture medium containing 10% FBS. The cells were transferred into a 96-well plate, at 8×10^4 cells/well, followed by incubating overnight in an incubator at 5% CO2 at 37° C.;
2. […] The test compounds and control drug were added to wells, at 100 μL/well, to form test compound wells or reference wells, and the culture medium containing 10% FBS was added to wells, at 100 μL/well, as negative control. The cells were incubated in an incubator in the presence of 5% CO2 at 37° C. for 48 h.
3. The primary human hepatocytes were washed with PBS (0.1 M, pH=7.4) twice, and were added with CellTiter-Glo reagent at 100 μL/well. Cell-free wells added with CellTiter-Glo reagent at 100 μL/well served as the blank control. The 96-well plate was shaken on a shaker for 5 min, and then left at room temperature for 10 min.
4. The chemiluminescence values were detected using Victor X4 (Perkin Elmer). The chemiluminescence values of the test compound wells were denoted as F(test compound), the chemiluminescence values of the blank control wells were denoted as F(blank), and the chemiluminescence values of the negative control wells were denoted as F(negative control). The cell viabilities at different concentrations were calculated according to the following formula. Each concentration was measured in triplicate to give the average and the standard deviation.
5. The half maximal inhibitory concentration (IC50) of the test compounds to the primary human hepatocytes were calculated using Prism Graph software.

[2] = molecular target: T1, hURAT1 (Homo sapiens, UniProt Q96S37); experiment: Inhibition of 14C-uric acid uptake by hURAT1 in HEK293-transfected cells; type: cell-based; settings: HEK-293T cells stably expressing hURAT1, 14C-uric acid uptake, 5 min at 37° C.
T1 construct: expressed in transfected cells
T1 sequence (Q96S37 1-553): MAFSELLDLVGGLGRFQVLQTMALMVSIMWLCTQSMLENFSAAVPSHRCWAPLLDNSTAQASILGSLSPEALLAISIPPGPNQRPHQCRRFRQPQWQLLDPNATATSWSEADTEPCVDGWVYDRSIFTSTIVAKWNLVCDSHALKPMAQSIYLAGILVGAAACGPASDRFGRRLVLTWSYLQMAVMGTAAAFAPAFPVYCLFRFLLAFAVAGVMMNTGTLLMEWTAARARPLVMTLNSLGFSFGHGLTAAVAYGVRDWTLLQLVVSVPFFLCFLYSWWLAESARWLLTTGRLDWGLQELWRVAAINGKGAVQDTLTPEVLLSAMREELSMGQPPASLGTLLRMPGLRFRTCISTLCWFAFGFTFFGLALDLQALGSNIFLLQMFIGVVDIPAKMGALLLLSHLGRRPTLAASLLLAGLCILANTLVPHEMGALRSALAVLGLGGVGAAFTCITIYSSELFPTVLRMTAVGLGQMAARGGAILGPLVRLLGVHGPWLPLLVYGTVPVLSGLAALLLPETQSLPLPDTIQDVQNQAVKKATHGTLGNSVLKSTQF
Protocol: 1. Cell Culture and Inoculation
2) When the cells covered 80% of the culture medium, the culture medium was removed. The cells were washed with PBS once, followed by digestion with pancreatin-EDTA. After detachment, the cells were added with a culture medium, exfoliated by pipetting, and centrifuged for harvesting. The harvested cells were added with a culture medium and mixed well to give a cell suspension.
3) The cell density was adjusted to 3×10^5 cells/mL, transferred into a white-wall, clear-bottom, 96-well cell culture plate with 100 μL/well, and incubated for 12-24 h.
1) A 20 mM stock solution of the compound was prepared with DMSO. Then the stock solution was diluted to a starting concentration of 2 mM with DMSO.
2) The solution was serially 4-fold diluted with DMSO from […] to the 10th concentration on a 96-well plate serving as the 100× plate, and respective quality controls were prepared.
3) The solutions in corresponding wells were 10-fold diluted with Cl-free HBSS buffer on another 96-well plate serving as the 10× plate.
4) Buffer containing 0.1 μCi/mL ^14C-uric acid, at 45 μL/well, and a 10× diluted compound, at 5 μL/well, were added to a third 96-well plate serving as the 1× plate for later use. The concentration of DMSO was 1%.
3. Uptake of ^14C-Uric Acid in Cells Stably Expressing hURAT1
1) The uptake assay was performed after the cultivated cells in 96-well plates adhered.
2) The cells were washed once with pre-heated buffer at 200 μL/well.
3) After the wells were dried, corresponding compounds (50 μL/well) and 0.1 μCi/mL ^14C-uric acid were immediately added.
4) The plate with the compound was incubated in a 37° C. incubator for 5 min.
5) 150 μL of ice-cold buffer was added to each well to terminate the uptake. Each well was washed three times with buffer. The cells were carefully washed to avoid detachment.
6) 50 μL of lysis buffer was added to each well, prior to shaking at 900 rpm on an oscillator for 5 min.
7) 150 μL of scintillation solution (Microint 40) was added to each well before shaking at 900 rpm for 5 min.
8) Finally, the microwell plate was transferred to a MicroBeta Trilux (PerkinElmer Co. Ltd.) for detection.
The data were analyzed and the IC50 of the quality controls and all test compounds on the plates were calculated using XL-fit software.

IC50 [2] [nM] | SMILES | IC50 [1] [nM]
 | CCc1oc2ccccc2c1C(=O)c1cc(Br)c(O)c(Br)c1 [Benzbromarone, reference compound] | 6650
< 50 | CCc1oc2ccncc2c1C(=O)c1cc(Br)c(O)c(Br)c1 [Example 1, (3,5-dibromo-4-hydroxyphenyl)(2-ethylfuro[3,2-c]pyridin-3-yl) methanone] | 
50 to 200 | CCn1nc2ccc(F)cc2c1C(=O)c1cc(Br)c(O)c(Br)n1 [Example 8, (4,6-dibromo-5-hydroxypyridin-2-yl)(2-ethyl-5-fluoro-2H-indazol-3-yl)methanone] | 
